# Patent US5424441A, “N-aralkyl-and N-heteroaralkyl-aminoalkanephosphinic acids” (Ciba-Geigy Corporation, priority 1994, dated 1995)
# System: "epileptic-like" discharges from pyramidal cells
# Experiment: penicillin-induced "epileptic" hippocampus section preparation, electrophysiological model in vitro
# Type: cell-based
# Conditions: read-out: concentration at which "epileptic-like" discharges from pyramidal cells are inhibited
smiles,measurement,value
NCC(CC(=O)O)c1ccc(Cl)cc1 (stereo not shown) [baclofen],minimal effective concentration,6 µM
